# According to publication PMC11181328 (Journal of Medicinal Chemistry, 2024):
# Counter-ions that a name gives are not always drawn. Like-named read-outs stand apart in the source and are kept apart here.
# Legend:
# KOR [1] = biological target: T1, KOR (Mus musculus, UniProt P33534); experiment: Competitive radioligand binding assay, KOR; details: [3H]diprenorphine, mKOR-CHO membranes
# T1 construct: expressed in transfected cells; membrane homogenate
# MOR [2] = biological target: T2, MOR (Mus musculus, UniProt P42866); experiment: Competitive radioligand binding assay, MOR; design: expressed in transfected cells; membrane homogenate; details: [3H]naloxone, mMOR-CHO membranes; for Ki: read-out: radioligand binding affinity (Ki, nM) MOR
# DOR [3] = biological target: T3, DOR (Homo sapiens, UniProt P41143); experiment: Competitive radioligand binding assay, DOR; details: [3H]diprenorphine, hDOR-CHO membranes; read-out: radioligand binding affinity (Ki, nM) DOR
# T3 construct: expressed in transfected cells; membrane homogenate
# KOR [4] = biological target: T1, KOR; experiment: [35S]-GTPγS functional assay, KOR; assay type: biochemical; details: for Emax: percent of U50,488 full agonist control
# male Swiss Webster mice [5] = experiment: Warm-water tail immersion assay, agonism (single dose screen and potency); assay type: in vivo, mouse; details: single dose 10 mg/kg s.c., 20 min
# MOR [6] = biological target: T2, MOR; details: percent of DAMGO; MOR functional activity first published; cited from earlier work
# DOR [7] = biological target: T3, DOR; experiment: [35S]-GTPγS functional assay, DOR; assay type: biochemical; details: hDOR-CHO membranes
# hERG = hERG (Homo sapiens, UniProt Q12809); details: read-out: hERG IC50; cited from earlier work
# DOR [8] = biological target: T3, DOR; details: read-out: radioligand binding affinity (Ki, nM) DOR; [3H]diprenorphine; cited from earlier work
# male Swiss Webster mice [9] = details: 0.1 mg/kg; cited from earlier work
# [10] = same conditions; cited from earlier work
# male Swiss Webster mice [11] = details: warm-water tail immersion; cited from earlier work
# in vitro [12] = details: human, s9
# in vitro [13] = details: Sprague-Dawley, rat, s9
# male Swiss Webster mice [14] = experiment: Locomotor activity assay; assay type: in vivo, mouse; details: s.c., 30 min session
# Method: This hypolocomotion could result in false positives in assays of evoked antinociception such as WWTI.[115] Thus, a locomotor activity assay was utilized to assess this end point in accordance with previous studies.[28] In brief, the day prior to testing, mice were placed in the open field chamber for acclimation. On the test day, they were injected with compounds 21, 23, NLF, or vehicle and immediately placed back into the open field chamber. Photo beam breaks then recorded the mouse’s locomotion over a 30 min test period.
# Six open field activity chambers (Med Associates, St. Albans, VT) were used in the locomotor activity study. Each chamber is located inside a sound-attenuating cubicle (Med Associates) and is equipped with a ventilation system. The interior of the chamber consists of a 27 × 27 cm plexiglass enclosure wired with photobeam cells and connected to a computer console that monitors the activity of the animal.
# The day before the experiment, mice were acclimated to the activity chambers for a period of 30 min. On the day of the experiment, mice were administered vehicle or test compound s.c., placed into the activity chambers immediately and activity was monitored and recorded for a period of 30 min.
# The primary dependent measures are total (1) distance traveled (cm), (2) ambulatory counts, (3) vertical counts, and (4) average speed (cm/s) within the 30 min session. Data are shown as mean ± SEM. Data were compared using one-way or two-way ANOVA as appropriate and a significant ANOVA was followed by a Dunnet’s post hoc test as appropriate. Statistical significance was defined as p < 0.05.
# male Swiss Webster mice [15] = experiment: Warm-water tail immersion assay, receptor selectivity study; assay type: in vivo, mouse
# male Swiss Webster mice [16] = experiment: Warm-water tail immersion assay, time course study; assay type: in vivo, mouse; details: 0.1 mg/kg s.c.
# [17] = system: male and female Sprague–Dawley rats; details: intravenous, FR5 schedule of reinforcement, 2 h sessions
# male Swiss Webster mice [18] = experiment: Warm-water tail immersion assay, antagonism of morphine; assay type: in vivo, mouse; details: s.c. 5 min prior to morphine
structure (smiles),measurement,setting,value
"Cl.O=C(CCc1ccco1)N[C@@H]1CC[C@@]2(O)[C@H]3Cc4ccc(O)c5c4[C@@]2(CCN3CC2CC2)[C@H]1O5 [Compound 16, 17-Cyclopropylmethyl-3,14β-dihydroxy-4,5α-epoxy-6β-[3′-(furan-2″-yl)propanamido]morphinan Hydrochloride]","radioligand binding affinity (Ki, nM) KOR",KOR [1],subnanomolar
same,Ki,"KOR [1]; read-out: radioligand binding affinity (Ki, nM) KOR",0.61 ± 0.07 nM
same,"radioligand binding affinity (Ki, nM) MOR",MOR [2],subnanomolar
same,Ki,MOR [2],0.28 ± 0.02 nM
same,Ki,DOR [3],33 ± 3.58 nM
same,EC50,KOR [4]; mKOR-CHO membranes,1.62 ± 0.12 nM
same,antinociception compared to the vehicle group,male Swiss Webster mice [5],lack of significant antinociceptive effect
same,[35S]-GTPγS functional activity MOR Emax (%),MOR [6],above 40%
same,EC50,DOR [7],16.8 ± 2.96 nM
"Cl.O=C(CCc1ccoc1)N[C@H]1CC[C@@]2(O)[C@H]3Cc4ccc(O)c5c4[C@@]2(CCN3CC2CC2)[C@H]1O5 [Compound 6, 17-Cyclopropylmethyl-3,14β-dihydroxy-4,5α-epoxy-6α-[3′-(furan-3″-yl)propanamido]morphinan Hydrochloride]","radioligand binding affinity (Ki, nM) MOR",MOR [2],subnanomolar
same,Ki,MOR [2],0.44 ± 0.1 nM
same,Emax,KOR [4],80.3 ± 4.73%
same,antinociception compared to the vehicle group,male Swiss Webster mice [5],lack of significant antinociceptive effect
same,[35S]-GTPγS functional activity MOR Emax (%),MOR [6],27.62 ± 1.96%
CN(C(=O)/C=C/c1ccoc1)[C@H]1CC[C@@]2(O)[C@H]3Cc4ccc(O)c5c4[C@@]2(CCN3CC2CC2)[C@H]1O5.Cl [NMF],IC50,hERG,6.7 µM
same,Ki,DOR [8],0.64 ± 0.11 nM
same,duration of antinociceptive effects,male Swiss Webster mice [9],1 h
same,half-life in rat liver S9 fraction,[10],10 min
same,potency ED50 [95% CI] mg/kg,male Swiss Webster mice [11],0.037 [0.014–0.096] mg/kg
"Cl.O=C(CCc1ccoc1)N[C@@H]1CC[C@@]2(O)[C@H]3Cc4ccc(O)c5c4[C@@]2(CCN3CC2CC2)[C@H]1O5 [Compound 8, 17-Cyclopropylmethyl-3,14β-dihydroxy-4,5α-epoxy-6β-[3′-(furan-3″-yl)propanamido]morphinan Hydrochloride]","radioligand binding affinity (Ki, nM) MOR",MOR [2],subnanomolar
same,Ki,MOR [2],0.21 ± 0.01 nM
same,Emax,KOR [4],95.9 ± 1.43%
same,antinociception compared to the vehicle group,male Swiss Webster mice [5],lack of significant antinociceptive effect
same,[35S]-GTPγS functional activity MOR Emax (%),MOR [6],above 40%
"O=C(O)Cc1ccccc1Nc1c(Cl)cccc1Cl [diclofenac, reference compound]","half-life at 1 h, 1 µM",in vitro [12],18.5 min
same,"microsomal CLint at 1 h, 1 µM",in vitro [12],37.4 µL/min/mg
same,"half-life at 1 h, 1 µM",in vitro [13],102 min
same,"microsomal CLint at 1 h, 1 µM",in vitro [13],6.8 µL/min/mg
"CN(C(=O)/C=C/c1ccoc1)[C@@H]1CC[C@@]2(O)[C@H]3Cc4ccc(O)c5c4[C@@]2(CCN3CC2CC2)[C@H]1O5.Cl [NLF, Nalfurafine, reference compound]",locomotor activity,male Swiss Webster mice [14],slight dose-dependent trends for decreased locomotion
same,average speed by time versus vehicle,male Swiss Webster mice [14]; Figure 6F–H,significantly different from vehicle
same,Ki,DOR [8],116 ± 20.9 nM
same,antagonism of antinociceptive effects by nor-BNI (KOR antagonist) pretreatment,male Swiss Webster mice [15]; 10 mg/kg nor-BNI s.c. 24 h prior to 0.1 mg/kg test compound s.c. (23 also 0.05 mg/kg),significantly lower
same,antagonism of antinociceptive effects by β-FNA (MOR antagonist) pretreatment,male Swiss Webster mice [15]; 10 mg/kg β-FNA s.c. 24 h prior to 0.1 mg/kg test compound s.c.,not antagonized by β-FNA
same,antagonism of antinociceptive effects by NTI (DOR antagonist) pretreatment,male Swiss Webster mice [15]; 15 mg/kg NTI s.c. 30 min prior to 0.1 mg/kg test compound s.c. (23 also 0.05 mg/kg),significantly lower
same,antagonism of antinociceptive effects by NTI and nor-BNI pretreatment together,male Swiss Webster mice [15]; nor-BNI 10 mg/kg + NTI 15 mg/kg s.c. prior to test compound,did not result in a more drastic decrease than either antagonist alone
same,antinociceptive effects significant until (time postinjection),male Swiss Webster mice [16],1 h
same,return to the baseline postinjection,male Swiss Webster mice [16],9 h
same,reinforcing effect (number of infusions earned versus saline),[17],did not function as a reinforcer
same,potency ED50 [95% CI] mg/kg,male Swiss Webster mice [11],0.046 [0.016–0.126] mg/kg
"C=CCN1CC[C@]23c4c5ccc(O)c4O[C@H]2C(=O)CC[C@@]3(O)[C@H]1C5 [naloxone, Naloxone HCl]",blockade of morphine antinociception,male Swiss Webster mice [18],sufficiently antagonized morphine antinociception
